Data taken from patent US9551710B2, “Signaling molecule involved in ultraviolet damage to skin” (Drexel University, priority 2010, dated 2017).

Key:
[1] = test system: MMP-1 expression in human dermal fibroblasts (HDFs); assay: MMP-1 expression by western blot of culture supernatants of UV-exposed human dermal fibroblasts pretreated with kinase inhibitors; assay type: cell-based; details: UVB 60 mJ/cm^2, medium collected 24 hours after exposure
Method: Human dermal fibroblasts AG04058 (Coriell Institute for Medical Research, Camden, N.J.) were cultured and maintained in MEM containing glucose (4.5 mg/ml), glutamine (2 mM), […], and 10% heat-inactivated fetal bovine serum. For cell transfection, Fugene 6 transfection kit (Roche, Germany) was used to deliver Syk cDNA and the Saint-Red siRNA delivery system (Synvolux Therapeutics B.V., The Netherlands) was chosen to transfect Syk siRNA and control siRNA (Santa Cruz Biotechnology Inc., Santa Cruz, Calif.) into the cells. Cells were exposed to UVB (312 nm) (60 mJ/cm^2) by a Stratalinker UV Crosslinker (Stratagene, La Jolla, Calif.). Cell supernatants were collected 24 hrs after UV exposure, and prepared for MMP-1 expression assay.
Twenty-four hours after UV exposure, the culture media of HDFs were collected for MMP-1 assay. Based on OD280 measurement, equal amounts of proteins from the supernatants were mixed with 2× sample buffer, boiled for 5 min and chilled on ice. Samples were then subjected to […] and electrophoretically transferred to nitrocellulose membrane. The membrane was blocked with 5% dry milk in washing buffer. MMP-1 was detected with anti-MMP-1 antibody, and the results were visualized by an ECL detection system. For Syk protein and MAPK activation western blot assays, cell pellets were lysed in 1× Triton X-100 lysis buffer (1% Triton X-100, 5 mmol/L Hepes—KOH, pH 7.4) in the presence of protease and phosphatase inhibitors containing 5 mM EGTA, 3 mM Na orthovanadate, 2 mM phenylmethylsulfonyl fluoride, and […] aprotinin and leupeptin (Sigma Chemical Co., St. Louis, Mo.). Following centrifugation at 12,000 rpm for 30 min at 4° C., the cleared lysates were subjected to the same procedure as that followed for MMP-1 assay. Syk protein and MAPK activation were detected with anti-Syk antibody and anti-phospho-MAPK antibodies, respectively, by western blot. For the activation of Syk kinase assay, briefly, cell lysates were precleared by incubation with protein G plus agarose (Santa Cruz Biotechnology, Inc.), and then incubated overnight at 4° C. with anti-Syk antibody. Immune complexes would bind to protein G plus agarose in the lysis buffer. The agarose beads were washed three times with lysis buffer and the adsorbed proteins were eluted into the sample buffer. Tyrosine phosphorylation of Syk kinase (Syk activation) was determined with anti-phosphotyrosine antibody by western blot.
Human fibroblast cells (AG04058) were seeded into 24-well tissue culture dishes with MEM medium one day before the assay. Specific inhibitors for each kinase were added into each different well as indicated (FIG. 4). […]
The dose-response of piceatannol inhibition was assessed in HDFs exposed to UVB (60 mJ/cm^2) (FIG. 9B).

[2] = test system: UV induced apoptosis in mouse skin; details: from cited literature; cited from earlier work

Row | SMILES | inhibition of MMP-1 expression (western blot, image-density analysis) ([1]; piceatannol 1 μg/ml) | inhibition of MMP-1 expression (western blot, image-density analysis) ([1]; piceatannol 5 μg/ml) | inhibition of MMP-1 expression (western blot, image-density analysis) ([1]; piceatannol 10 μg/ml) | inhibition of MMP-1 expression (western blot, image-density analysis) ([1]; piceatannol 25 μg/ml) | UV induced apoptosis in mouse skin, in words [2]
1 | Oc1cc(O)cc(/C=C/c2ccc(O)c(O)c2)c1 [piceatannol] | no inhibition | no inhibition | 20% | 63% | 
2 | Oc1ccc(-c2nc(-c3ccncc3)c(-c3ccc(F)cc3)[nH]2)cc1 [SB202190] |  |  |  |  | blocked
